Patent US10047104B2, “Bicyclic heterocyclyl derivatives as IRAK4 inhibitors” (Aurigene Discovery Technologies Limited, priority 2014, dated 2018)
Counter-ions that a name gives are not always drawn.

biological target: T1, recombinant IRAK-4 kinase (Homo sapiens, UniProt Q9NWZ3); experiment: IRAK-4 Biochemical Assay (TR-FRET); details: 5 ng IRAK-4 kinase, 100 nM Biotin Histone H3, 20 μM ATP, 30 minutes pre-incubation, read-out: IC50 values for IRAK4 activity
T1 construct: purchased Millipore, USA
T1 sequence (Q9NWZ3 1-460): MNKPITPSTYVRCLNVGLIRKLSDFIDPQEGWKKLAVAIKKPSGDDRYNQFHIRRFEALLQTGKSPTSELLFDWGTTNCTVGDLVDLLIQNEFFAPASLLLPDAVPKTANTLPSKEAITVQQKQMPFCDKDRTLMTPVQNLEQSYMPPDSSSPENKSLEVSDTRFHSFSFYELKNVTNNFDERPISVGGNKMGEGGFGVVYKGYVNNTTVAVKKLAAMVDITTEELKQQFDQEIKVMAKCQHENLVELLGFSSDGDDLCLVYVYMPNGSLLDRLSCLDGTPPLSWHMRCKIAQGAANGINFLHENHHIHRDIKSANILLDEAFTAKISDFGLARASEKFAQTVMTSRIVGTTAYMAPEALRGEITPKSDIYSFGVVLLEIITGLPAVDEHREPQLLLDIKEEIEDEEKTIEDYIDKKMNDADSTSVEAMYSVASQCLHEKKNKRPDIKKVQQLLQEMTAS
Method in brief: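 Recombinant IRAK-4 (5 ng) pre-incubated with compound 30 min at room temperature in Tris-HCl pH 7.5 with MgCl2/MnCl2, then 100 nM biotin-histone H3 and 20 μM ATP added for 30 min. Stopped with EDTA; phospho-Ser10 read by TR-FRET (Eu-antibody/APC-streptavidin).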

Row | Compound | IC50
1 | COc1ccc(-c2nc(C(=O)Nc3cc4sc(N5CCOCC5)nc4nc3N3CC[C@@H](O)C3)co2)cn1 [Example 78, (R)—N-(5-(3-hydroxypyrrolidin-1-yl)-2-morpholinothiazolo[4,5-b]pyridin-6-yl)-2-(6-methoxypyridin-3-yl)oxazole-4-carboxamide] | < 50 nM
2 | O=C(Nc1cc2sc(N3CCCCC3)nc2nc1N1CCCCC1)c1cccc(N2CC[C@H](O)C2)n1 [Example 65, (S)—N-(2,5-di(piperidin-1-yl)thiazolo[4,5-b]pyridin-6-yl)-6-(3-hydroxypyrrolidin-1-yl)picolinamide] | < 50 nM
3 | Cn1cc(-c2cccc(C(=O)Nc3cc4sc(N5CCCCC5)nc4nc3N3CCCCC3)n2)cn1 [Example 50, N-(2,5-di(piperidin-1-yl)thiazolo[4,5-b]pyridin-6-yl)-6-(1-methyl-1H-pyrazol-4-yl)picolinamide hydrochloride] | < 50 nM
4 | Cc1cc(-c2nc(C(=O)Nc3cc4sc(N5CCCCC5)nc4nc3N3CCC3)co2)ccn1 [Example 87, N-(5-(azetidin-1-yl)-2-(piperidin-1-yl)thiazolo[4,5-b]pyridin-6-yl)-2-(2-methylpyridin-4-yl)oxazole-4-carboxamide] | < 50 nM
5 | Cc1cc(-c2ccc(C(=O)Nc3cc4sc(N5CCOCC5)nc4nc3N3CC[C@H](O)C3)s2)ccn1 [Example 81, (S)—N-(5-(3-hydroxypyrrolidin-1-yl)-2-morpholinothiazolo[4,5-b]pyridin-6-yl)-5-(2-methylpyridin-4-yl)thiophene-2-carboxamide] | > 100 nM
6 | Cc1cc(-c2nc(C(=O)Nc3cc4sc(N5CCOCC5)nc4nc3N3CC[C@H](O)C3)co2)ccn1 [Example 71, (S)—N-(5-(3-hydroxypyrrolidin-1-yl)-2-morpholinothiazolo[4,5-b]pyridin-6-yl)-2-(2-methylpyridin-4-yl)oxazole-4-carboxamide] | < 50 nM
7 | Cc1cc(-c2ccc(C(=O)Nc3cc4oc(N5CCOCC5)nc4nc3N3CC[C@H](O)C3)o2)ccn1 [Example 107, (S)—N-(5-(3-hydroxypyrrolidin-1-yl)-2-morpholinooxazolo[4,5-b]pyridin-6-yl)-5-(2-methylpyridin-4-yl)furan-2-carboxamide] | > 100 nM
8 | N[C@H]1CCN(c2cccc(C(=O)Nc3cc4sc(N5CCCCC5)nc4nc3N3CCCCC3)n2)C1 [Example 64, (S)-6-(3-aminopyrrolidin-1-yl)-N-(2,5-di(piperidin-1-yl)thiazolo[4,5-b]pyridin-6-yl)picolinamide] | < 50 nM
9 | Cc1cc(-c2nc(C(=O)Nc3cc4sc(N5CCOCC5)nc4nc3-c3cn[nH]c3)co2)ccn1 [Example 121, 2-(2-methylpyridin-4-yl)-N-(2-morpholino-5-(1H-pyrazol-4-yl)thiazolo[4,5-b]pyridin-6-yl)oxazole-4-carboxamide] | < 50 nM
10 | COc1ccc(-c2nc(C(=O)Nc3cc4oc(N5CCOCC5)nc4nc3N3CC[C@@H](O)C3)co2)cn1 [Example 105, (R)—N-(5-(3-hydroxypyrrolidin-1-yl)-2-morpholinooxazolo[4,5-b]pyridin-6-yl)-2-(6-methoxypyridin-3-yl)oxazole-4-carboxamide] | > 100 nM
11 | Cc1cc(-c2nc(C(=O)Nc3cc4sc(N5CCCC(O)C5)nc4nc3N3CCCCC3)co2)ccn1 (stereo not shown) [Example 124, N-(2-(3-hydroxypiperidin-1-yl)-5-(piperidin-1-yl)thiazolo[4,5-b]pyridin-6-yl)-2-(2-methylpyridin-4-yl)oxazole-4-carboxamide] | < 50 nM
12 | Nc1ccc(-c2cccc(C(=O)Nc3cnc4nc(N5CCOCC5)sc4c3)n2)cn1 [Example 16, 6′-amino-N-(2-morpholinothiazolo[4,5-b]pyridin-6-yl)-[2,3′-bipyridine]-6-carboxamide] | < 50 nM
13 | Cc1cc(-c2nc(C(=O)Nc3cc4sc(N5C[C@@H](C)O[C@@H](C)C5)nc4nc3N3CCCCC3)co2)ccn1 [Example 53, N-(2-((2S,6R)-2,6-dimethylmorpholino)-5-(piperidin-1-yl)thiazolo[4,5-b]pyridin-6-yl)-2-(2-methylpyridin-4-yl)oxazole-4-carboxamide] | < 50 nM
14 | COc1ccc(-c2nc(C(=O)Nc3cc4sc(N5CCOCC5)nc4nc3N3CC[C@H](O)C3)co2)cn1 [Example 77, (S)—N-(5-(3-hydroxypyrrolidin-1-yl)-2-morpholinothiazolo[4,5-b]pyridin-6-yl)-2-(6-methoxypyridin-3-yl)oxazole-4-carboxamide] | < 50 nM

Continued, values first:

Row | IC50 | Compound
15 | < 50 nM | O=C(Nc1cc2oc(N3CCOCC3)nc2nc1N1CCCCC1)c1cccc(Cl)n1 [Example 8, 6-chloro-N-(2-morpholino-5-(piperidin-1-yl)oxazolo[4,5-b]pyridin-6-yl)picolinamide]
16 | < 50 nM | O=C(Nc1cc2sc(N3CCOCC3)nc2nc1N1CCCCC1)c1cccc(-c2cn[nH]c2)n1 [Example 21, N-(2-morpholino-5-(piperidin-1-yl)thiazolo[4,5-b]pyridin-6-yl)-6-(1H-pyrazol-4-yl)picolinamide]
17 | < 50 nM | O=C(Nc1cc2sc(N3CCOCC3)nc2nc1N1CCCCC1)c1coc(N2CC[C@H](O)C2)n1 [Example 70, (S)-2-(3-hydroxypyrrolidin-1-yl)-N-(2-morpholino-5-(piperidin-1-yl)thiazolo[4,5-b]pyridin-6-yl)oxazole-4-carboxamide]
18 | < 50 nM | Cc1ncccc1-c1nc(C(=O)Nc2cc3oc(N4CCCCC4)nc3nc2N2CCCCC2)co1 [Example 27, N-(2,5-di(piperidin-1-yl)oxazolo[4,5-b]pyridin-6-yl)-2-(2-methylpyridin-3-yl)oxazole-4-carboxamide]
19 | < 50 nM | N[C@H]1CCN(c2nc(C(=O)Nc3cc4sc(N5CCOCC5)nc4nc3N3CCCCC3)co2)C1 [Example 66, (S)-2-(3-aminopyrrolidin-1-yl)-N-(2-morpholino-5-(piperidin-1-yl)thiazolo[4,5-b]pyridin-6-yl)oxazole-4-carboxamide]
20 | < 50 nM | Cc1ccc(-c2nc(C(=O)Nc3cc4oc(N5CCOCC5)nc4nc3N3CCCCC3)co2)cn1 [Example 35, 2-(6-methylpyridin-3-yl)-N-(2-morpholino-5-(piperidin-1-yl)oxazolo[4,5-b]pyridin-6-yl)oxazole-4-carboxamide]
21 | < 50 nM | Cc1cc(-c2nc(C(=O)Nc3cc4oc(N5CCOCC5)nc4nc3N3CCOCC3)co2)ccn1 [Example 24, N-(2,5-dimorpholinooxazolo[4,5-b]pyridin-6-yl)-2-(2-methylpyridin-4-yl)oxazole-4-carboxamide]
22 | < 50 nM | Cc1ccc(-c2nc(C(=O)Nc3cc4sc(N5CCOCC5)nc4nc3N3CCCCC3)co2)cn1 [Example 60, 2-(6-methylpyridin-3-yl)-N-(2-morpholino-5-(piperidin-1-yl)thiazolo[4,5-b]pyridin-6-yl)oxazole-4-carboxamide]
